Source: ChEMBL document CHEMBL6153036, “Genome-informed Discovery of Monchicamides A-K: Cyanobactins from the Microcoleaceae Cyanobacterium LEGE 16532” (J Nat Prod, 2025)
Active and inactive are the calls of the source. Where a SMILES comes first, the peptide text is derived from it. [ ]: non-standard residue; d: D form. The star is where a group is joined. ξ: configuration not given here. ξIle = CC[C@H](C)C(N)C(=O)O; Prenyl = CC(C)=CC*

Experiments:
SH-SY5Y = experiment: Cytotoxicity against human SH-SY5Y cells assessed as cell viability at 10 ug/mL incubated for 48 hrs by MTT assay; format: functional, cell-based; conditions: dose 10.0 µg/ml
Dictyostelium discoideum = experiment: Antiamoebic activity against Dictyostelium discoideum assessed as cell viability at 10 uM incubated for 24 hrs by Alamar blue staining based assay; format: functional, organism-based
Candida albicans = experiment: Antifungal activity against Candida albicans ATCC 10231 assessed as fungal growth inhibition at 1 mg/mL preincubated for 30 mins at room temperature followed by incubation at 37 degreeC for 24 hrs by agar disc-diffusion method; format: functional, organism-based; conditions: time 24.5 hrs
Bacillus subtilis = experiment: Antibacterial activity against Bacillus subtilis ATCC 6633 assessed as bacterial growth inhibition at 1 mg/mL preincubated for 30 mins at room temperature followed by incubation at 37 degreeC for 24 hrs by agar disc-diffusion method; format: functional, organism-based; conditions: time 24.5 hrs
Escherichia coli = experiment: Antibacterial activity against Escherichia coli ATCC 25922 assessed as bacterial growth inhibition at 1 mg/mL preincubated for 30 mins at room temperature followed by incubation at 37 degreeC for 24 hrs by agar disc-diffusion method; format: functional, organism-based; conditions: time 24.5 hrs
Acanthamoeba polyphaga = experiment: Antiamoebic activity against Acanthamoeba polyphaga assessed as cell viability at 10 uM incubated for 24 hrs by Alamar blue staining based assay; format: functional, organism-based
Salmonella typhimurium = experiment: Antibacterial activity against Salmonella typhimurium ATCC 25241 assessed as bacterial growth inhibition at 1 mg/mL preincubated for 30 mins at room temperature followed by incubation at 37 degreeC for 24 hrs by agar disc-diffusion method; format: functional, organism-based; conditions: Salmonella enterica subsp. enterica serovar Typhimurium, time 24.5 hrs
HCT-116 = experiment: Cytotoxicity against human HCT-116 cells assessed as cell viability at 10 ug/mL incubated for 48 hrs by MTT assay; format: functional, cell-based; conditions: dose 10.0 µg/ml
HepG2 = experiment: Cytotoxicity against human HepG2 cells assessed as cell viability at 10 ug/mL incubated for 48 hrs by MTT assay; format: functional, cell-based; conditions: dose 10.0 µg/ml
Acanthamoeba castellanii = experiment: Antiamoebic activity against Acanthamoeba castellanii assessed as cell viability at 10 uM incubated for 24 hrs by Alamar blue staining based assay; format: functional, organism-based
Staphylococcus aureus = experiment: Antibacterial activity against Staphylococcus aureus ATCC 29213 assessed as bacterial growth inhibition at 1 mg/mL preincubated for 30 mins at room temperature followed by incubation at 37 degreeC for 24 hrs by agar disc-diffusion method; format: functional, organism-based; conditions: time 24.5 hrs

Measured: Activity

CC[C@H](C)C1NC(=O)[C@@H]2CCCN2C(=O)[C@H](Cc2ccc(OCC=C(C)C)cc2)NC(=O)[C@@H]2CCCN2C(=O)[C@H](C(C)C)NC(=O)CNC(=O)[C@H](C(C)C)NC(=O)CNC1=O (stereo partly specified) (cyclo(GVGVPY(Prenyl)P[ξIle]))
inactive: all assays above
